In US10980238B2, “Alkali metal salt for use in treatment of varroa destructor mite infestation of honey bees” (Universität Hohenheim, priority 2015, dated 2021):
“And” between values parts separate entries of the source, which are not always exact repeats. Equal values may be shown once. Read-outs that look alike come from different tables or passages of the source.

Columns and labels:
bees [1] = conditions: for impact on bee viability: 4 mM, 7-day treatment period, data not shown; for Number of dead bees, Day 1 / Number of dead bees, Day 2 / Number of dead bees, Day 3 / Number of dead bees, Day 4 / Number of dead bees, Day 5 / Number of dead bees, Day 6 / Number of dead bees, Day 7: Li-salt 25 mM in sucrose syrup for 7 days; for Number of dead bees, Day 1 / Number of dead bees, Day 2 / Number of dead bees, Day 3 / Number of dead bees, Day 4 / Number of dead bees, Day 5 / Number of dead bees, Day 6 / Number of dead bees, Day 7 / Number of dead bees, Sum: 50 bees per cage, mean of three replicates; for Number of dead bees, Sum: Li-salt 25 mM in sucrose syrup, days 1-7
Excerpt: (§1) The bees were fed with Li-salt/sucrose solutions for 7 days. Survival rate of bees and mites were monitored daily and dead bees or mites were removed.

Varroa destructor = conditions: for effect on mites during the 7-day treatment period: 4 mM, data not shown; for Number of dead mites, Day 1 / Number of dead mites, Day 2 / Number of dead mites, Day 3 / Number of dead mites, Day 4 / Number of dead mites, Day 5 / Number of dead mites, Day 6 / Number of dead mites, Day 7: Li-salt 25 mM in sucrose syrup for 7 days; for Number of dead mites, Day 1 / Number of dead mites, Day 2 / Number of dead mites, Day 3 / Number of dead mites, Day 4 / Number of dead mites, Day 5 / Number of dead mites, Day 6 / Number of dead mites, Day 7 / Number of dead mites, Sum: 25 mites per cage, mean of three replicates; for Number of dead mites, Sum: Li-salt 25 mM in sucrose syrup, days 1-7
Excerpt: as §1

bees [2] = conditions: 50 bees per cage; for Number of dead bees, Day 1 / Number of dead bees, Day 2 / Number of dead bees, Day 3 / Number of dead bees, Day 4 / Number of dead bees, Day 5 / Number of dead bees, Day 6 / Number of dead bees, Day 7: 25 mM in 70% sucrose for seven days; for Number of dead bees, Day 1 / Number of dead bees, Day 2 / Number of dead bees, Day 3 / Number of dead bees, Day 4 / Number of dead bees, Day 5 / Number of dead bees, Day 6 / Number of dead bees, Day 7 / Number of dead bees, Sum: mean of 6 cages (LiCl) or 3 cages; for Number of dead bees, Sum: days 1-7
Method: (§2) In a further experiment LiCl, NaCl and MgCl2 were selected and their acaricidal activity compared. The experiment was performed in cages of 50 bees, to each of which 25 mites were added. Bees in control cages received sucrose only. LiCl, NaCl or MgCl2 were added to 70% sucrose solutions at a final concentration of 25 mM each and fed to the bees for seven days. Survival rate of bees and mites were monitored daily. Dead bees and mites were removed from the cages.
(§3) The numbers represent mean values derived from 6 cages. […] Numbers for NaCl, MgCl2 and control represent mean values derived from 3 separate cages.

Varroa mites = assay: Experiment 5 cage comparison of LiCl, NaCl and MgCl2: dead mites; type: in vivo, Varroa destructor; conditions: for Number of dead mites, Day 1 / Number of dead mites, Day 2 / Number of dead mites, Day 3 / Number of dead mites, Day 4 / Number of dead mites, Day 5 / Number of dead mites, Day 6 / Number of dead mites, Day 7 / Number of dead mites, Sum: 25 mites per cage, mean of 6 cages (LiCl) or 3 cages; for Number of dead mites, Sum: 25 mM in 70% sucrose, days 1-7
Method: as §2, §3

bees [3] = assay: Experiment 4 cage test of MgCl2 (50 bees, 20 mites): bee health; type: in vivo, Apis mellifera; conditions: 100 mM in sucrose syrup
Method: To test the activity of bivalent ions we dissolved MgCl2 in sucrose syrup at a final concentration of 100 mM. 2 cages of 50 bees to which 20 mites were added were fed with sucrose syrup only and syrup containing 100 mM MgCl2.

[4] = 25 mM in 70% sucrose for seven days

| Structure (SMILES) | impact on bee viability (bees [1]) | Number of dead bees, Day 1 (bees [1]) | Number of dead bees, Day 2 (bees [1]) | Number of dead bees, Day 3 (bees [1]) | Number of dead bees, Day 4 (bees [1]) | Number of dead bees, Day 5 (bees [1]) | Number of dead bees, Day 6 (bees [1]) | Number of dead bees, Day 7 (bees [1]) | Number of dead bees, Sum (bees [1]) | effect on mites during the 7-day treatment period (Varroa destructor) | Number of dead mites, Day 1 (Varroa destructor) | Number of dead mites, Day 2 (Varroa destructor) | Number of dead mites, Day 3 (Varroa destructor) | Number of dead mites, Day 4 (Varroa destructor) | Number of dead mites, Day 5 (Varroa destructor) | Number of dead mites, Day 6 (Varroa destructor) | Number of dead mites, Day 7 (Varroa destructor) | Number of dead mites, Sum (Varroa destructor) | Number of dead bees, Day 1 (bees [2]) | Number of dead bees, Day 2 (bees [2]) | also measured |
| --- | --- | --- | --- | --- | --- | --- | --- | --- | --- | --- | --- | --- | --- | --- | --- | --- | --- | --- | --- | --- | --- |
| O=C([O-])[O-].[Li+].[Li+] [Li-carbonate, lithium carbonate] | without a significant negative impact on bee viability | 0.7 | 0.0 | 0.0 | 0.0 | 0.0 | 0.3 | 0.7 | 1.7 | killed all mites | 0.3 | 3.0 | 20.0 | 1.7 | 0.0 | 0.0 | 0.0 | 25.0 | – | – | – |
| O=C([O-])CC(O)(CC(=O)[O-])C(=O)[O-].[Li+].[Li+].[Li+] [Li-citrate, lithium citrate] | without a significant negative impact on bee viability | 0.0 | 0.0 | 0.3 | 0.0 | 0.7 | 1.7 | 0.3 | 3.0 | killed all mites | 0.3 | 10.0 | 14.7 | 0.0 | 0.0 | 0.0 | 0.0 | 25.0 | – | – | – |
| CC(O)C(=O)[O-].[Li+] (centres unmarked) [Li-lactate, lithium lactate] | without a significant negative impact on bee viability | 0.3 | 0.0 | 0.0 | 0.7 | 2.0 | 0.3 | 1.7 | 5.0 | killed all mites | 0.7 | 14.0 | 6.3 | 4.0 | 0.0 | 0.0 | 0.0 | 25.0 | – | – | – |
| O=S(=O)([O-])[O-].[Li+].[Li+] [Li-sulfate, lithium sulfate] | without a significant negative impact on bee viability | 0.0 | 0.0 | 0.0 | 1.0 | 3.7 | 1.7 | 0.0 | 6.3 | killed all mites | 0.7 | 18.0 | 5.7 | 0.7 | 0.0 | 0.0 | 0.0 | 25.0 | – | – | – |
| [Cl-].[Cl-].[Mg+2] [MgCl2] | – | – | – | – | – | – | – | – | – | – | – | – | – | – | – | – | – | – | 0.0 | 18.0 | Number of dead bees, Day 3 (bees [2]): 18.3; Number of dead bees, Day 4 (bees [2]): 9.3; Number of dead bees, Day 5 (bees [2]): 4.3; Number of dead bees, Day 6 (bees [2]): 0.0; Number of dead bees, Day 7 (bees [2]): 0.0; Number of dead bees, Sum (bees [2]; 25 mM in 70% sucrose): 50.0; time after which all bees were dead (bees [2]; 25 mM in 70% sucrose): 5 days; Number of dead mites, Day 1 (Varroa mites; [4]): 0.3; Number of dead mites, Day 2 (Varroa mites; [4]): 1.0; Number of dead mites, Day 3 (Varroa mites; [4]): 1.0; Number of dead mites, Day 4 (Varroa mites; [4]): 3.7; Number of dead mites, Day 5 (Varroa mites; [4]): 0.7; Number of dead mites, Day 6 (Varroa mites; [4]): 0.0; Number of dead mites, Day 7 (Varroa mites; [4]): 0.0; Number of dead mites, Sum (Varroa mites): 6.7; effect on bee health (bees [3]): impair bee health substantially |
| [Cl-].[Na+] [NaCl] | – | – | – | – | – | – | – | – | – | – | – | – | – | – | – | – | – | – | 0.0 | 0.0 | Number of dead bees, Day 3 (bees [2]): 0.0; Number of dead bees, Day 4 (bees [2]): 0.3; Number of dead bees, Day 5 (bees [2]): 0.0; Number of dead bees, Day 6 (bees [2]): 0.0; Number of dead bees, Day 7 (bees [2]): 1.3; Number of dead bees, Sum (bees [2]; 25 mM in 70% sucrose): 2 and 1.7; acaricidal effect (Varroa mites; [4]): fails to exhibit an acaricidal effect; Number of dead mites, Day 1 (Varroa mites; [4]): 0.0; Number of dead mites, Day 2 (Varroa mites; [4]): 0.3; Number of dead mites, Day 3 (Varroa mites; [4]): 0.0; Number of dead mites, Day 4 (Varroa mites; [4]): 0.0; Number of dead mites, Day 5 (Varroa mites; [4]): 0.3; Number of dead mites, Day 6 (Varroa mites; [4]): 0.7; Number of dead mites, Day 7 (Varroa mites; [4]): 1.0; Number of dead mites, Sum (Varroa mites): 2 and 2.3 |
